{"source": "patent US20240150423A1", "about": "“GLP-1 ANALOGUE-MODIFIED DIMERS WITH DIFFERENT CONFIGURATIONS, PREPARATION METHOD THEREOF, AND APPLICATION THEREOF IN TREATMENT OF TYPE II DIABETES” (Nanjing Finepeptide Biopharmaceutical Co.,Ltd, priority 2019, published 2024)", "note": "Non-standard residues stand in square brackets, D forms with d. No end group written: not given here. βAla = NCCC(=O)O"}
{"test_system": "Normal Kunming (KM) mice", "test": "multiple OGTT (mOGTT): hypoglycemic duration after a single administration", "format": "in vivo", "conditions": "monomeric peptides, single injection at the same dose (1.126 nmol), subcutaneous", "summary_of_the_method": "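Normal Kunming mice given a single dose, then oral glucose challenges; tail-blood glucose read by meter at 0, 10, 20, 40, 60 and 120 min. Duration scored as hypoglycemic period until group mean glucose exceeded the NaCl control twice.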", "units": {"Hypoglycemic": "days"}}
{"substance": "His-βAib-Glu-Gly-Thr-Phe-Thr-Ser-Asp-Val-Ser-Cys-Tyr-Leu-Glu-Gly-Gln-Ala-Ala-Lys[N-ϵ-(N-α-Palmitoyl-L-γ-glutamyl)]-Glu-Phe-Ile-Ala-Trp-Leu-Val-Lys[N-ϵ-(N-α-Palmitoyl-L-γ-glutamyl)]-Gly-Arg-Gly-NH2 (HXEGTFTSDVSCYLEGQAAXEFIAWLVXGRG; not fully specified; beta-Aib; two palmitoyl-gamma-Glu on Lys; C-terminal amide; Sequence is synthesized; (2)..(2) Xaa is bAib; (20)..(20) Xaa is 26Lys[N-e-(N-a-palmitoyl-L-g-glutamyl)]; (28)..(28) Xaa is 26Lys[N-e-(N-a-palmitoyl-L-g-glutamyl)]; (31)..(31) N-terminal) [G5 series 43]", "Hypoglycemic": 3}
{"substance": "His-βAib-Glu-Gly-Thr-Phe-Thr-Ser-Asp-Val-Ser-Cys-Tyr-Leu-Glu-Gly-Gln-Ala-Ala-Lys[N-ϵ-(N-α-oleoyl)]-Glu-Phe-Ile-Ala-Trp-Leu-Val-Arg-Gly-Arg-Gly-NH2 (HXEGTFTSDVSCYLEGQAAXEFIAWLVRGRG; not fully specified; beta-Aib; oleoyl on Lys side chain; C-terminal amide; Sequence is synthesized; (2)..(2) Xaa is bAib; (20)..(20) Xaa is 26Lys[N-e-(N-a-oleoyl-L-g-glutamyl)]; (31)..(31) N-terminal) [G4 series 38]", "Hypoglycemic": 6}
{"substance": "His-βAib-Glu-Gly-Thr-Phe-Thr-Ser-Asp-Val-Ser-Cys-Tyr-Leu-Glu-Gly-Gln-Ala-Ala-Lys[N-ϵ-(N-α-oleoyl-L-γ-glutamyl)]-Glu-Phe-Ile-Ala-Trp-Leu-Val-Arg-Gly-Arg-Gly-NH2 (HXEGTFTSDVSCYLEGQAAXEFIAWLVRGRG; not fully specified; beta-Aib; oleoyl-gamma-Glu on Lys; C-terminal amide; Sequence is synthesized; (2)..(2) Xaa is bAib; (20)..(20) Xaa is 26Lys[N-e-(N-a-oleoyl-L-g-glutamyl)]; (31)..(31) N-terminal) [G6 series 49]", "Hypoglycemic": 5}
{"substance": "His-βAla-Glu-Gly-Thr-Phe-Thr-Cys-Asp-Val-Ser-Ser-Tyr-Leu-Glu-Gly-Gln-Ala-Ala-Lys-Glu-Phe-Ile-Ala-Trp-Leu-Val-Arg-βAla-Arg-NH2 (H[βAla]EGTFTCDVSSYLEGQAAKEFIAWLVR[βAla]R-NH2; not fully specified; printed as His-βAla-Glu-Gly-Thr-Phe-Thr-Cys-Asp-Val-Ser-Ser-Tyr-Leu-Glu-Gly-Gln-Ala-Ala-Lys-Glu-Phe-Ile-Ala-Trp-Leu-Val-Arg-βAla-Arg-NH2) [G8 series 69]", "Hypoglycemic": 2}
{"substance": "His-βAla-Glu-Gly-Thr-Phe-Thr-Cys-Asp-Val-Ser-Ser-Tyr-Leu-Glu-Gly-Gln-Ala-Ala-Lys[N-ϵ-(N-α-oleoyl-L-γ-glutamyl)]-Glu-Phe-Ile-Ala-Trp-Leu-Val-Arg-Gly-Arg-Gly-NH2 (HXEGTFTCDVSSYLEGQAAXEFIAWLVRGRG; beta-amino acid; oleoyl-gamma-Glu on Lys; C-terminal amide; Sequence is synthesized; (2)..(2) Xaa is bAla; (20)..(20) Xaa is 26Lys[N-e-(N-a-oleoyl-L-g-glutamyl)]; (31)..(31) N-terminal) [G8 series 68]", "Hypoglycemic": 4}
{"substance": "His-βAla-Glu-Gly-Thr-Phe-Thr-Ser-Asp-Val-Cys-Ser-Tyr-Leu-Glu-Gly-Gln-Ala-Ala-Lys-Glu-Phe-Ile-Ala-Trp-Leu-Val-Arg-βAla-Arg-NH2 (H[βAla]EGTFTSDVCSYLEGQAAKEFIAWLVR[βAla]R-NH2; not fully specified; printed as His-βAla-Glu-Gly-Thr-Phe-Thr-Ser-Asp-Val-Cys-Ser-Tyr-Leu-Glu-Gly-Gln-Ala-Ala-Lys-Glu-Phe-Ile-Ala-Trp-Leu-Val-Arg-βAla-Arg-NH2) [G2 series 19]", "Hypoglycemic": 3}
